Primed or numbered codes have the meaning given here. Where no end group is shown, it is not given here. Galloyl′ = not defined here
Columns and labels:
mushroom tyrosinase = assay: Inhibition effect on tyrosinase activity; assay type: biochemical; conditions: test compound 100 μM; L-tyrosine substrate; pH 6.8; 37° C., 20 min; absorbance 490 nm
Experimental: Inhibition effects of the prepared compounds were measured by the known method (see: Pomerantz S. H., J. Biochem., 24:161-168, 1966).
The test compounds were prepared to a final concentration of 100 μM and put into a 96-well plate, and 220 μl of 100 mM sodium phosphate buffer (pH 6.8) and 40 μl of 1.5 mM L-tyrosine solution were added thereto. The resulting mixture was reacted with the addition of 20 μl of mushroom tyrosinase (1,500 units/ml, Sigma) at 37° C. for 20 min. 0.2 ml of the reacted solution was transferred to a 96-well plate, and its absorbance was measured at 490 nm with a microplate reader to obtain the inhibition effect on tyrosinase.
The tyrosinase inhibition effect was calculated according to the following formula 1 by using the absorbance of pure water as a control, and expressed as a percentage.

[1] = Free radical scavenging activity test (DPPH method, anti-oxidative activity); assay type: physicochemical; conditions: 30 min, absorbance 517 nm
Experimental: A representative antioxidant, vitamin C (Sigma) was used as a positive control, and the galloyl-tetrapeptide and digalloyl-tetrapeptide according to the present invention were mixed with 1,1-diphenyl-2-picrylhydrazyl (DPPH, Sigma) producing free radicals in ethanol to determine the reduced amounts of the produced free radicals. […] The resulting solution was vigorously vortexed for 10 sec, kept at a dark cold place for 30 min, and then its absorbance was measured at 517 nm by ELISA method. The anti-oxidative activity (free radical scavenging activity) was calculated according to the following formula 2 by using the absorbance of pure water as a control, and expressed as a percentage. [formula]

Compound	Inhibition (%) (mushroom tyrosinase)	Free radical scavenging activity (%) ([1]; 10 uM)	Free radical scavenging activity (%) ([1]; 50 uM)	Free radical scavenging activity (%) ([1]; 100 uM)
Galloyl-Tripeptide(Tyrosyl-Histidyl-Tyrosine) ({Galloyl′}-Tyr-His-Tyr) [Comparative Example 1, soy bean-derived peptide connected to gallic acid]	15			
Galloyl-Tripeptide(Glutamyl-Cysteinyl-Glycine) [Example 3]	34			
O=C(O)c1cc(O)c(O)c(O)c1 [Gallic acid]	10	63.1	70.4	75.1
Galloyl-Tetrapeptide(Lysyl-Glutamyl-Cysteinyl-Glycine) [Example 1]	40	65.8	78.2	78.1
O=C1O[C@H]([C@@H](O)CO)C(O)=C1O [Vitamin C]		55.2	68.3	72.5
Digalloyl-Tetrapeptide(Lysyl-Glutamyl-Cysteinyl-Glycine) [Example 2]	52	82.1	82.0	83.5
Digalloyl-Tetrapeptide(Lysyl-Tyrosyl-Histidyl-Tyrosine) (KYHY; also: digalloyl: two galloyl groups, sites not given here) [Comparative Example 2, soy bean-derived peptide connected to gallic acid]	21			
